This is an account of results in patent publication US12214079B2, “Micronized lipids” (MCAL Therapeutics Inc., priority 2021, dated 2025).

SMILES strings stand for the structures. ≈ marks a conversion by molar mass, not a printed value. Entries after “also recorded” stand apart in the source; their conditions may differ. Like-named read-outs stand apart in the source and are kept apart here.

As a reminder, the solubility is the concentration that dissolves in the medium under given conditions.

A short description of series [1]: General and physiochemical properties of MCAL-201 (solubility, hygroscopicity). It is filed as physicochemical. The procedure: The general and physiochemical properties of MCAL-201 are: • 1,2-EPRG has a molecular weight of 611.05 g/mol • Empirical formula: C39H78O4 • Appearance: White powder • Particle size: 1-10 μm (post micronization) • Hygroscopicity: Low • Chirality: Racemic • Enantiomeric excess: 0 • Melting point: 57° C. • Solubility: Insoluble in water. Soluble in chloroform (40 mg/mL) and castor • oil (25 mg/mL)
However, preparation of a water soluble cyclodextrin inclusion complex of MCAL-201 was used in nonclinical efficacy studies. In addition, solutions of MCAL-201 in castor oil which can be emulsified to micron sized liquid particles in aqueous buffers can be used to deliver MCAL-201 directly to the tear film lipid layer.

The next series has as its system naive dogs. Nature of the series: Non-GLP topical ocular dose range-finding toxicity and tolerability study (SPOTS scoring). It is filed as in vivo. The conditions noted are these: up to 10 mg/mL OU BID for 48 hours. The procedure:
A non-GLP topical ocular administration dose range-finding pharmacology and toxicity study of MCAL-201 was conducted in naive dogs. The primary study objective was to assess the tolerability of topical ocular administration of MCAL-201 in dogs with a secondary objective to obtain data supporting pharmacological activity in healthy dogs.
The effects of vehicle and 0.1, 0.5, 1, 3 and 10 mg/mL MCAL-201 delivered as a 35 μL drop bilaterally QD (0.0035, 0.0175, 0.035, 0.105 and 0.35 mg/eye/day) were evaluated in Part I. The dosing regimen is summarized in 3.
(§1) Scoring of the ocular surface and anterior segment of the eye was performed using the SPOTS system by a board-certified veterinary ophthalmologist. SPOTS was performed for each concentration evaluated. To measure TBUT, fluorescein was instilled in the eye and the eye was manually closed and then gently opened to simulate a blink. The time interval between the opening of the eye and the first sign of disruption of the uniform tear film, as indicated by breaks in the fluorescein was recorded in seconds. The procedure was repeated three times on both eyes, first right than left eye. After BID dosing with 10 mg/mL MCAL-201, SPOTS was also performed at 48 hours after the last dose.

A further series relates to healthy dogs. Nature of the series: Tear film break-up time (TBUT) by fluorescein after topical ocular administration. It is filed as in vivo, dog. The conditions noted are these: 5 healthy adult dogs. The method, then: as §1
Series [2] is described as follows: Isomeric stability (1,2-EPRG to 1,3-EPRG acyl migration), NMR analysis of isomeric content. In kind it is physicochemical. An excerpt:
FIG. 4 provides NMR (nuclear magnetic resonance) spectral analysis of 1,3-EPRG and 1,2-EPRG isomeric content (1.15 mol % 1,3-EPRG) of MCAL-201 after jet mill micronization.
FIG. 5 provides NMR (nuclear magnetic resonance) spectral analysis of 1,3-EPRG and 1,2-EPRG isomeric content (0.0991 mol % 1,3-EPRG) of MCAL-201 after solid micronized MCAL-201suspension is stored at room temperature for 6 weeks.
This led to development of the delivery of solid MCAL-201 as a suspension of crystalline or amorphous micronized solid particle suspended in a water-based formulation isotonic with tear. Although MCAL-201 crystalline drug substance floated on phosphate buffered saline (PBS) it could be suspended following micronization to 1-10 micron particles which could be stably suspended in PBS with the aid of polysorbate 80 as a wetting agent and xanthan gum to adjust density and viscosity of the drug product.

As to `CCCCCCCCCCCCCCCCCCCCOCC(CO)OC(=O)CCCCCCCCCCCCCCC` (racemic) [MCAL-201, 1-O-eicosanyl-2-palmitoyl-rac-glycerol], the Hygroscopicity result in series [1] is listed as “Low”. Further, the solubility in series [1] (castor oil, oil or lipid, read-out: Solubility in castor oil) was 25 mg/mL (≈ 40.9 mM); in series [1] (chloroform, organic solvent or mixture, read-out: Solubility in chloroform), 40 mg/mL (≈ 65.5 mM). In addition, the Solubility in water entry in series [1] (water) was “Insoluble; also recorded: extreme insolubility”. In addition, the “Ocular or systemic adverse events” value with naive dogs (any time or concentration evaluated) is reported as “no ocular or systemic adverse events”. The Tolerability entry in the series with naive dogs (topical ocular 35 μL drop) is “well tolerated”. Further, the “Effect on TBUT” value with healthy dogs is listed as “extended TBUT”. Also, the “1,3-EPRG isomeric content (NMR)” value came to 1.15 mol % in series [2] (after jet mill micronization) and 0.0991 mol % in series [2] (solid micronized suspension stored at room temperature for 6 weeks). The “Chemical stability (acyl migration of palmitoyl from 2 to 3 position)” value in series [2] (liquid solution phase) is listed as “lacked long-term chemical stability”. Further, the “Time for which isomeric stability was demonstrated” value in series [2] (micronized, in the suspension formulation at room temperature) stood at 6 weeks. For the same compound, the “Stability to the micronization process” value in series [2] (particles recovered from formulated drug by centrifugation and washing) was “chemical and isomeric stability”. The Isomeric stability result in series [2] (solid phase, compared with solution) is “far greater than in solution”.
